Patent US12473258B2, “Crystal form of pyridinylphenyl compound and preparation method therefor” (ZHUHAI UNITED LABORATORIES CO., LTD., priority 2020, dated 2025)

Columns and labels:
[1] = system: dry eye model of rat induced by hypertonic sodium chloride solution; assay: Hyperosmolar dry eye model of rats induced by hypertonic sodium chloride solution, eye drop administration; assay type: in vivo, SD rats
Protocol: 20 female SD rats qualified for the adaptability observation were subjected to the scoring of fluorescent staining of the cornea and measurement of tear secretion amount of both eyes for the animals, and animals with abnormalities of problematic fluorescent staining of the cornea and significant differences in tear secretion amount were excluded.
A pipette was used to draw 20 μL of sodium chloride solution (osmotic pressure of 500 mOsmol/L), which was dropped into the conjunctival sac of both eyes of the animal, 5 times/day, 20 μL/time, with an interval of about 2 hours between each time, for 28 consecutive days. After dropping the solution, the animal's eyelids were passively closed for about 90 s. On the 14th day of the modeling period, the animals were subjected to scoring of fluorescent staining of the cornea of both eyes and measurement of tear secretion amount, and the data were compared with the basic data, and the animals with significant differences in tear secretion amount of both eyes were selected for grouping.
, the tear secretion amount of both eyes was measured, and the scoring of fluorescent staining of the cornea […]

[2] = 25° C. competition experiment of water activity (suspension and beating, XRPD); assay type: physicochemical; conditions: competition of crystal form B and crystal form C
Protocol: If the solution was clear, the compound was continued to add until the solution was saturated. […] After addition of a magnetic stir bar, the above suspension sample was placed on a constant temperature mixer (25° C., 700 rpm) for shaking.
And the products obtained with water activity of 0.9 and 1.0 were characterized after drying, and the two were almost the same.

[3] = Pre-stability experiment of the crystal form (influencing factors and accelerated conditions, crystal form by XRPD); assay type: physicochemical
Protocol: X-Ray Powder Diffractometer (XRPD) Method in the Present Disclosure
Instrument model: Bruker D8 Advance X-ray diffractometer
Test method: About 10 mg of sample is used for XRPD test.
The detailed XRPD parameters are as follows:
The samples were fully exposed. Samples under the test condition of 40° C., 25° C./92.5% RH, light, light control were taken at 5 days and 10 days for analysis, and samples under the accelerated condition were taken at 1 month, 2 months and 3 months for analysis.

[4] = system: dry eye model of mice induced by scopolamine hydrobromide solution; assay: Dry eye model of mice induced by subcutaneous scopolamine hydrobromide solution, eye drop administration; assay type: in vivo, C57BL/6 mice
Protocol: The grouping day was recorded as DO. After divided into groups, Animals in each group were subjected to modeling, eye drop administration, scoring of corneal fluorescent staining, tear secretion measurement, etc., according to the experimental settings.

[5] = Tolerability of eye drops after administration in animals; assay type: in vivo; conditions: eye drops with the highest concentration
[6] = rats, 1 mg/mL eye drops (G2), D0
[7] = rats, 1 mg/mL eye drops (G2), D14
[8] = rats, 1 mg/mL eye drops (G2), D21
[9] = rats, 5 mg/mL eye drops (G3), D0
[10] = rats, 5 mg/mL eye drops (G3), D14
[11] = rats, 5 mg/mL eye drops (G3), D21
[12] = mice, 1 mg/mL eye drops (G3), D0 (grouping day)
[13] = mice, 1 mg/mL eye drops (G3), D7
[14] = mice, 1 mg/mL eye drops (G3), D12
[15] = mice, 2.5 mg/mL eye drops (G4), D0 (grouping day)
[16] = mice, 2.5 mg/mL eye drops (G4), D7
[17] = mice, 2.5 mg/mL eye drops (G4), D12
[18] = mice, 5 mg/mL eye drops (G5), D0 (grouping day)
[19] = mice, 5 mg/mL eye drops (G5), D7
[20] = mice, 5 mg/mL eye drops (G5), D12

Crystal Form ([3]; 25° C./92.5% RH (open), 5 days): Crystal Form B
Crystal Form ([3]; 25° C./92.5% RH (open), 10 days): Crystal Form B
Crystal Form ([3]; 40° C. (open), 1 month): Crystal Form B
Crystal Form ([3]; 40° C. (open), 10 days): Crystal Form B
Crystal Form ([3]; 40° C./75% RH (open), 1 month): Crystal Form B
Crystal Form ([3]; 40° C./75% RH (open), 2 month): Crystal Form B
Crystal Form ([3]; 40° C./75% RH (open), 3 month): Crystal Form B
Crystal Form ([3]; 60° C./75% RH (open), 1 month): Crystal Form B
Crystal Form ([3]; 60° C./75% RH (open), 2 month): Crystal Form B
Crystal Form ([3]; 60° C./75% RH (open), 3 month): Crystal Form B
Stability of the crystal form (conclusion) ([3]; influencing factors 10 days, 40° C. 1 month, 40° C./75% RH and 60° C./75% RH 3 months): stable
Crystal Form ([3]; light (visible light intensity 5000 lux and ultraviolet intensity 90 W/cm^2, open), 10 days): Crystal Form B
Crystal Form ([3]; light control, 10 days): Crystal Form B
SMILES: CC(C)(O)c1ccc(-c2cnc(C(C)(C)O)c(N)c2)cc1N
Therapeutic effect on the dry eye model of rat (tear secretion amount, corneal damage, tear film breakup time) ([1]; eye drops 1 mg/mL, 5 mg/mL): good therapeutic effect
Scoring of fluorescent staining of the cornea [1, 6]: 0.00 ± 0.00
Tear secretion amount: wetted length of phenol red cotton thread [1, 6]: 13.78 ± 5.25 mm
Scoring of fluorescent staining of the cornea [1, 7]: 4.75 ± 3.73
Tear secretion amount: wetted length of phenol red cotton thread [1, 7]: 8.12 ± 2.81 mm
Scoring of fluorescent staining of the cornea [1, 8]: 3.00 ± 2.78
Tear secretion amount: wetted length of phenol red cotton thread [1, 8]: 9.24 ± 4.07 mm
Scoring of fluorescent staining of the cornea [1, 9]: 0.13 ± 0.35
Tear secretion amount: wetted length of phenol red cotton thread [1, 9]: 13.87 ± 4.45 mm
Scoring of fluorescent staining of the cornea [1, 10]: 3.88 ± 2.36
Tear secretion amount: wetted length of phenol red cotton thread [1, 10]: 7.16 ± 2.77 mm
Scoring of fluorescent staining of the cornea [1, 11]: 1.75 ± 1.49
Tear secretion amount: wetted length of phenol red cotton thread [1, 11]: 11.37 ± 3.26 mm
Tear film breakup time ([1]; rats, eye drops): improved
Relative stability of crystal forms (conclusion) [2]: more stable than the crystal form C of the compound of formula (I)
Therapeutic effect on the dry eye model of mice (tear secretion amount and corneal damage) ([4]; eye drops 1 mg/mL, 2.5 mg/mL, 5 mg/mL): good therapeutic effect
Scoring of fluorescent staining of the cornea [4, 12]: 0.50 ± 0.97
Tear secretion amount: wetted length of phenol red cotton thread [4, 12]: 4.54 ± 1.84 mm
Scoring of fluorescent staining of the cornea [4, 13]: 2.56 ± 1.50##**&
Tear secretion amount: wetted length of phenol red cotton thread [4, 13]: 2.13 ± 0.69##**& mm
Scoring of fluorescent staining of the cornea [4, 14]: 2.31 ± 1.35##**&
Tear secretion amount: wetted length of phenol red cotton thread [4, 14]: 2.72 ± 0.91##**&& mm
Scoring of fluorescent staining of the cornea [4, 15]: 0.31 ± 0.87
Tear secretion amount: wetted length of phenol red cotton thread [4, 15]: 4.30 ± 1.08 mm
Scoring of fluorescent staining of the cornea [4, 16]: 2.88 ± 2.53
Tear secretion amount: wetted length of phenol red cotton thread [4, 16]: 2.14 ± 0.69##**& mm
Scoring of fluorescent staining of the cornea [4, 17]: 2.56 ± 1.55
Tear secretion amount: wetted length of phenol red cotton thread [4, 17]: 2.58 ± 0.82##**& mm
Scoring of fluorescent staining of the cornea [4, 18]: 0.25 ± 0.58
Tear secretion amount: wetted length of phenol red cotton thread [4, 18]: 4.28 ± 1.41 mm
Scoring of fluorescent staining of the cornea [4, 19]: 2.38 ± 2.09##**&
Tear secretion amount: wetted length of phenol red cotton thread [4, 19]: 2.73 ± 0.48##**&& mm
Scoring of fluorescent staining of the cornea [4, 20]: 2.38 ± 1.20##**&
Tear secretion amount: wetted length of phenol red cotton thread [4, 20]: 2.85 ± 0.57##**&& mm
Concentration of eye drops with the best therapeutic effect ([4]; mice, combining tear secretion amount and corneal staining score): 5 mg/mL
Discomfort in animals after administration of the eye drops [5]: do not cause any discomfort
